From patent US10532988B2, “Crystalline forms of neurotrophin mimetic compounds and their salts” (PharmatrophiX, Inc., priority 2009, dated 2020)
Counter-ions that a name gives are not always drawn. Like-named read-outs stand apart in the source and are kept apart here.

Assays:
[1] = Hygroscopicity - dynamic vapor sorption (DVS); type: physicochemical; details: for mass greater than the original value at 0% RH after desorption: DVS desorption phase, end at 0% RH; for RH up to which the sample did not adsorb much moisture (rapid sorption above): DVS sorption phase from 0% RH; for moisture sorption at 95% RH / moisture sorption at 90% RH: 25° C.
Procedure: Hygroscopicity—Dynamic Vapor Sorption (DVS):
Samples were analyzed using an automated dynamic vapor sorption analyzer. The sample (about 1-10 mg) was dried in the instrument 0% RH for 6 hours.

[2] = Solubility in water (incremental solvent addition, visual observation); details: for solubility: thermodynamic from solid
Procedure: Milligram size quantities of each sample were placed into a vial. Water was added and the vials were stirred for a few minutes, followed by visual observation for remaining solids. The solvent was incrementally added until the solids were dissolved, or a maximum volume of solvent was added and the experiment was terminated.

[3] = Stability study of salts and free base under stress, HPLC total area normalization; type: physicochemical
Procedure: The scaled up salts and free base were challenged by heat (solids stored at 25 and 60° C. for 1 week), oxidation (solids stored in oxygen headspace at 25° C. for 1 week), light (solids exposed to ≥1×ICH UV confirmatory conditions), and solutions (HPLC diluent) at 25 and 40° C. for 1 week. These samples were analyzed, along with unstressed controls, by HPLC to characterize their stability.
Crystalline forms (i.e., salts and free base) of the present invention were analyzed by total area normalization (TAN). The samples were dissolved in 1:1 Acetonitrile (ACN):Water (H2O) at a concentration of 0.5 mg/mL.
Stressed samples were analyzed using HPLC to determine their impurity profiles.
The stability results shown in Table 10 represent the averages of two injections of duplicate sample preparations.

[4] = Pharmacokinetic study of salt forms in rat plasma and brain after oral gavage; type: in vivo; details: for AUC%Extrap / AUCINF / AUCall / Cmax / T1/2 / Tmax / Brain:Plasma Ratio / Maximum Brain Level / Kp at 8 h / AUC / AUC(0-inf) / half-life: male rats, single 25 mg/kg free base by oral gavage; for Brain:Plasma Ratio / Maximum Brain Level / Kp at 8 h: brain at 1, 3 and 8 hours; for Kp at 8 h: brain and plasma, read-out: Brain:Plasma Ratio
Procedure: The objective of this study was to provide preliminary pharmacokinetic information regarding the exposure of different salt forms of LM11A-31 in rat plasma and brain when dosed by oral gavage. Groups consisting of nine male rats received single doses of 25 mg/kg free base by oral gavage. Plasma samples were obtained from three rats per timepoint after administration (0.5, 1, 2, 3, 4, and 8 hours) and brain samples were collected at 1-, 3-, and 8-hour terminations (three rats per time point).
The samples were analyzed by LC-MS/MS to determine the plasma and brain concentrations of the test article. Pharmacokinetic analysis of the plasma concentration data was conducted using noncompartmental analysis with WinNonlin Version 4.1.

[5] = Stability study, qualitative proton NMR of stressed samples; type: physicochemical; details: heat stress (solids stored at 60° C.)
Procedure: To confirm the little or no degradation observed in the HPLC stability study, some samples (solids stored at 60° C. and oxidation) of four of the salts and free base were further analyzed by proton NMR (i.e., HNMR). The analysis was qualitative.

[6] = Oxidation Ambient (oxygen headspace, 25° C., 1 week)
[7] = Photo Stability - Exposed (UV, ICH confirmatory conditions)
[8] = Solution (water and acetonitrile 1:1) - 40 C., 1 week
[9] = Solution (water and acetonitrile 1:1) - Ambient, 1 week

| mass greater than the original value at 0% RH after desorption [1] | RH up to which the sample did not adsorb much moisture (rapid sorption above) [1] | moisture sorption at 95% RH ([1]; DVS sorption phase) | HPLC Total Area Normalization - Area % Purity [3, 6] | HPLC Total Area Normalization - Area % Purity ([3]; Photo Stability - Dark Control) | HPLC Total Area Normalization - Area % Purity [3, 7] | HPLC Total Area Normalization - Area % Purity ([3]; Solid State - Ambient, 1 week) | HPLC Total Area Normalization - Area % Purity [3, 8] | AUC%Extrap ([4]; plasma) | Maximum Brain Level [4] | solubility [2] | overall hygroscopicity (in words) ([1]; DVS) | Molecule | HPLC Total Area Normalization - Area % Purity ([3]; Solid State - 60 C., 1 week) | HPLC Total Area Normalization - Area % Purity [3, 9] | AUCINF ([4]; plasma) | AUCall ([4]; plasma) | Cmax ([4]; plasma) | T1/2 ([4]; plasma) | Tmax ([4]; plasma) | also measured |
| --- | --- | --- | --- | --- | --- | --- | --- | --- | --- | --- | --- | --- | --- | --- | --- | --- | --- | --- | --- | --- |
| original weight | 45 % RH | 96 wt % | 99.97 Area % | 99.97 Area % | 99.98 Area % | 100 Area % | 99.89 Area % | 4.81% | 105 ng/g tissue | > 30 mg/mL | – | CC[C@H](C)[C@H](N)C(=O)NCCN1CCOCC1 (stereo in doubt) [Free base, 2-amino-3-methyl-N-(2-morpholinoethyl)-pentanamide] | – | – | – | – | – | – | – | degradation after heat stress by proton NMR [5]: slight degradation; Kp at 8 h ([4]; rat): 2 to 3.5; AUC ([4]; rat, plasma): 321 ng·h/mL; AUC(0-inf) ([4]; rat, plasma): 316 ng·h/mL; half-life ([4]; rat, plasma): 63 min; Cmax ([4]; rat, plasma, read-out: Cmax): 371 ng/mL; Tmax ([4]; rat, plasma, read-out: Tmax): 30 min; moisture adsorbed from 45% to 50% RH ([1]; DVS sorption phase, 45% to 50% RH): ~10 wt % |
| about 3 wt % | 55 % RH | 110 wt % | – | – | – | – | – | – | – | ≥ 28 mg/mL | – | CCC(C)C(N)C(=O)NCCN1CCOCC1.CS(=O)(=O)O.CS(=O)(=O)O (centres unmarked) [Dimesylate, 2-amino-3-methyl-N-(2-morpholinoethyl)-pentanamide Dimesylate] | – | – | – | – | – | – | – | – |
| – | about 80 % RH | – | 99.81 Area % | 99.85 Area % | 99.82 Area % | 99.90 Area % | 99.96 Area % | 3.44% | 123 ng/g tissue | – | did not appear deliquescent | CCC(C)C(N)C(=O)NCCN1CCOCC1.O=S(=O)(O)c1ccc2ccccc2c1.O=S(=O)(O)c1ccc2ccccc2c1 (centres unmarked) [Dinapsylate, 2-amino-3-methyl-N-(2-morpholinoethyl)-pentanamide Dinapsylate] | 99.87 Area % | 99.87 Area % | 280 ng·h/mL | 270 ng·h/mL | 335 ng/mL | 114 min | 30 min | overall PK properties compared with the free base ([4]; rat, oral gavage): better PK properties than the free base; terminal plasma half-life compared with the free base ([4]; rat, oral gavage, plasma): longer terminal plasma half-life; water taken up at high humidity ([1]; DVS, high humidity, no equilibrium at the highest humidity): 3 to 4 wt % |
| – | 80 % RH | – | 99.92 Area % | 99.94 Area % | 99.93 Area % | 99.82 Area % | 99.91 Area % | 1.45% | 120 ng/g tissue | 0.5 to 0.7 mg/mL | – | CCC(C)C(N)C(=O)NCCN1CCOCC1.Cc1ccc(S(=O)(=O)O)cc1.Cc1ccc(S(=O)(=O)O)cc1 (centres unmarked) [Ditosylate, 2-amino-3-methyl-N-(2-morpholinoethyl)-pentanamide Ditosylate] | 99.94 Area % | 99.89 Area % | – | – | – | – | – | Kp at 8 h ([4]; rat): 1 to 5.7; AUC ([4]; rat, plasma): 295 ng·h/mL; AUC(0-inf) ([4]; rat, plasma): 290 ng·h/mL; half-life ([4]; rat, plasma): 37.8 min; Cmax ([4]; rat, plasma, read-out: Cmax): 296 ng/mL; Tmax ([4]; rat, plasma, read-out: Tmax): 30 min; moisture sorption at 90% RH ([1]; DVS sorption phase): 30 wt % |
| – | 50 % RH | 1.5 wt % | – | – | – | – | – | – | – | – | did not take up much water | CCC(C)C(N)C(=O)NCCN1CCOCC1.O=C(O)C(=O)O (centres unmarked) [Monooxalate, 2-amino-3-methyl-N-(2-morpholinoethyl)-pentanamide Monooxalate] | – | – | – | – | – | – | – | – |
| about 5 wt % | 20 % RH | 140 wt % | – | – | – | – | – | – | – | > 30 mg/mL | quite hygroscopic | CCC(C)C(N)C(=O)NCCN1CCOCC1 (centres unmarked) [di-HCl salt, 2-amino-3-methyl-N-(2-morpholinoethyl)-pentanamide] | – | – | – | – | – | – | – | – |

| Molecule | mass greater than the original value at 0% RH after desorption [1] | RH up to which the sample did not adsorb much moisture (rapid sorption above) [1] | moisture sorption at 95% RH ([1]; DVS sorption phase) | HPLC Total Area Normalization - Area % Purity [3, 6] | HPLC Total Area Normalization - Area % Purity ([3]; Photo Stability - Dark Control) | HPLC Total Area Normalization - Area % Purity [3, 7] | HPLC Total Area Normalization - Area % Purity ([3]; Solid State - Ambient, 1 week) | HPLC Total Area Normalization - Area % Purity [3, 8] | AUC%Extrap ([4]; plasma) | Maximum Brain Level [4] | solubility [2] | overall hygroscopicity (in words) ([1]; DVS) | HPLC Total Area Normalization - Area % Purity ([3]; Solid State - 60 C., 1 week) | HPLC Total Area Normalization - Area % Purity [3, 9] | AUCINF ([4]; plasma) | AUCall ([4]; plasma) | Cmax ([4]; plasma) | T1/2 ([4]; plasma) | Tmax ([4]; plasma) | also measured |
| --- | --- | --- | --- | --- | --- | --- | --- | --- | --- | --- | --- | --- | --- | --- | --- | --- | --- | --- | --- | --- |
| 2-amino-3-methyl-N-(2-morpholinoethyl)-pentanamide Digluconate | about 4 wt % | 45 % RH | 110 wt % | – | – | – | – | – | – | – | – | – | – | – | – | – | – | – | – | – |
| 2-amino-3-methyl-N-(2-morpholinoethyl)-pentanamide Disulfate | about 4 wt % | 60 % RH | 140 wt % | 99.97 Area % | 99.97 Area % | 99.94 Area % | 99.98 Area % | 99.75 Area % | 5.26% | 77 ng/g tissue | – | – | 99.98 Area % | 99.90 Area % | 410 ng·h/mL | 416 ng·h/mL | 413 ng/mL | 66 min | 30 min | solubility in water ([2]; ambient temperature): > 3; Brain:Plasma Ratio [4]: 0.6-1.8; overall PK properties compared with the free base ([4]; rat, oral gavage): better PK properties than the free base; exposure (AUC and Cmax) compared with the free base ([4]; rat, oral gavage, plasma): higher exposure |
| 2-amino-3-methyl-N-(2-morpholinoethyl)-pentanamide Monoedisylate | – | 80 % RH | – | 99.95 Area % | 99.97 Area % | 99.86 Area % | 99.79 Area % | 99.90 Area % | 1.52% | 98 ng/g tissue | – | – | 99.95 Area % | 999.81 Area % | 243 ng·h/mL | 247 ng·h/mL | 284 ng/mL | 42.5 min | 30 min | crude solubility in water [2]: ≤ 14 mg/mL; Brain:Plasma Ratio [4]: 1.4-3.3; moisture sorption at 90% RH ([1]; DVS sorption phase): 85 wt % |
